“Also recorded” adds a separate entry of the source. Like-named read-outs stand apart in the source and are kept apart here.
Assays:
[1] = test system: HEK293 cells; experiment: MTT cytotoxicity assay on HEK293 cells; assay type: cell-based, human; settings: for cytotoxic effects on healthy HEK293 cells (in words): 24 h, up to 100 μM; for IC50: Homo sapiens, HEK293, 24 h exposure, 12.5–100 μM
Experimental: The HEK293 was used for cell culture studies and obtained from the American Type Culture Collection (ATCC). Cells were cultured in RPMI-1640 cell medium supplemented with 10% fetal calf serum (FBS) and 1% penicillin/streptomycin. Cells were seeded 6 × 10^5/mL density into 96 well cell culture plates and incubated in a CO2 incubator at 37 °C. The cells were exposed to different chemical concentrations (100, 50, 25 and 12,5 μM) for 24 h after reaching a confluency of 80%.
The MTT assay was used to assess the cell viability. The MTT assay included putting the cells in an MTT solution (at 1 mg/mL concentration) and incubating them for 1 h at 37 °C. The absorbance was measured at a wavelength of 570 nm using an Epoch microplate spectrophotometer.

[2] = biological target: α-glucosidase; experiment: α-glucosidase inhibitory activity (p-nitrophenyl-α-D-glucopyranoside method); assay type: biochemical
Experimental: After 20 min incubation at 37 °C, 90 μL Na2CO3 (100 mM) was added into the each well to stop the enzymatic reaction. Absorbance of the 96-well microplate reader was recorded at 400 nm. Antidiabetic inhibition activity data were taken in three parallel measurements for four concentrations of each synthesis sample. The results of the biological activity analyses are presented as IC50 values.

[3] = biological target: T1, α-amylase (Sus scrofa, UniProt P00690); experiment: α-amylase inhibitory activity (spectroscopic starch/Lugol method); assay type: biochemical
T1 sequence (P00690 16-511): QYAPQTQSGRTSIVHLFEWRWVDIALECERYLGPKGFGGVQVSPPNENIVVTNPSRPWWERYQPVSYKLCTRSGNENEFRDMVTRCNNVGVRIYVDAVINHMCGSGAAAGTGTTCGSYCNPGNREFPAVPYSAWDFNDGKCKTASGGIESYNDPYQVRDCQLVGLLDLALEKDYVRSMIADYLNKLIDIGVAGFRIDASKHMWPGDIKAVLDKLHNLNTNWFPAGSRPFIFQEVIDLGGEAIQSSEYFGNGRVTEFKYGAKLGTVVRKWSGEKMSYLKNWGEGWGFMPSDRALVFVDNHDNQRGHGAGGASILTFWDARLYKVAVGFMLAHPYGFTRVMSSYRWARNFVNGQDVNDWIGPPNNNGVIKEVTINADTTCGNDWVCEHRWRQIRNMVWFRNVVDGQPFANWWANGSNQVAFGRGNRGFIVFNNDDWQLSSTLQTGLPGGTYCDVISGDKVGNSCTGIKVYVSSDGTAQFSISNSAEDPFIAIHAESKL

[4] = test system: α-glucosidase; experiment: α-glucosidase inhibitory activity (p-nitrophenyl-α-D-glucopyranoside method); assay type: biochemical; remark: listed apart in the source
[5] = mean ± SEM of three parallel measurements, read-out: antidiabetic inhibition activity IC50, α-glucosidase
[6] = no unit in Table 5, same values as Table 2 (there μM), read-out: IC50 value (α-glucosidase), as repeated in docking Table 5

Row | SMILES | IC50 [2, 5] | IC50 [2, 6] | cytotoxic effects on healthy HEK293 cells (in words) [1] | IC50 [1] | type of inhibition of α-amylase (enzyme kinetic study, Lineweaver–Burk) [3] | type of inhibition of α-glucosidase (enzyme kinetic study, Lineweaver–Burk) [4]
1 | C[C@H]1O[C@H](O[C@H]2[C@H](O)[C@@H](O)[C@@H](O[C@H]3[C@H](O)[C@@H](O)C(O)O[C@@H]3CO)O[C@@H]2CO)[C@H](O)[C@@H](O)[C@@H]1N[C@H]1C=C(CO)[C@@H](O)[C@H](O)[C@H]1O (some centres unmarked) [acarbose, reference compound] | – | – | nontoxic; also recorded: no cytotoxic effects | > 100 µM | – | –
2 | CC(=NNC(=O)c1ccc(F)cc1)c1ccc(S(=O)(=O)NC(=O)NC2CCCCC2)cc1 [compound 3, N-(Cyclohexylcarbamoyl)-4-(1-(2-(4-fluorobenzoyl)-hydrazinylidene)-ethyl)-benzenesulfonamide] | 45.34 ± 0.36 µM | 45.34 ± 0.36 µM | not causing any damage to healthy cells; also recorded: no negative impact on healthy cells | > 100 µM | – | –
3 | CC(=NNC(=O)c1ccc(Br)cc1)c1ccc(S(=O)(=O)NC(=O)NC2CCCCC2)cc1 [compound 5, N-(Cyclohexylcarbamoyl)-4-(1-(2-(4-bromobenzoyl)-hydrazinylidene)-ethyl)-benzenesulfonamide] | 77.36 ± 0.31 µM | 77.36 ± 0.31 µM | – | > 100 µM | – | –
4 | COc1ccc(C(=O)N/N=C(\C)c2ccc(S(=O)(=O)NC(=O)NC3CCCCC3)cc2)cc1 [compound 8, N-(Cyclohexylcarbamoyl)-4-(1-(2-(4-methoxy)-hydrazinilidene)-ethyl)-benzenesulfonamide] | 38.1 ± 0.8 µM | 38.1 ± 0.8 µM | not causing any damage to healthy cells; also recorded: no negative impact on healthy cells | – | uncompetitive | uncompetitive
5 | CC(=NNC(=O)c1cccc([N+](=O)[O-])c1)c1ccc(S(=O)(=O)NC(=O)NC2CCCCC2)cc1 [compound 9, N-(Cyclohexylcarbamoyl)-4-(1-(2-(3-nitrobenzoyl)-hydrazinylidene)-ethyl)-benzenesulfonamide] | 61.2 ± 0.69 µM | 61.2 ± 0.69 µM | – | 69.2 µM | – | –
6 | CC(=NNC(=O)c1ccc([N+](=O)[O-])cc1)c1ccc(S(=O)(=O)NC(=O)NC2CCCCC2)cc1 [compound 10, N-(Cyclohexylcarbamoyl)-4-(1-(2-(4-nitrobenzoyl)-hydrazinylidene)-ethyl)-benzenesulfonamide] | 40.44 ± 0.23 µM | 40.44 ± 0.23 µM | not causing any damage to healthy cells; also recorded: no negative impact on healthy cells | > 100 µM | – | –

Continued, in another order:

Row | IC50 [2, 5] | IC50 [2, 6] | SMILES | cytotoxic effects on healthy HEK293 cells (in words) [1] | IC50 [1] | type of inhibition of α-amylase (enzyme kinetic study, Lineweaver–Burk) [3] | type of inhibition of α-glucosidase (enzyme kinetic study, Lineweaver–Burk) [4]
7 | 108 ± 0.69 µM | 108 ± 0.69 µM | C/C(=N\NC(=O)c1ccccc1)c1ccc(S(=O)(=O)NC(=O)NC2CCCCC2)cc1 [compound 1, 4-(1-(2-Benzoylhydrazinilidene)-ethyl)-N-(cyclohexylcarbamoyl)-benzenesulfonamide] | – | > 100 µM | – | –
8 | 68.75 ± 0.37 µM | 68.75 ± 0.37 µM | CC(=NNC(=O)c1cccc(Cl)c1)c1ccc(S(=O)(=O)NC(=O)NC2CCCCC2)cc1 [compound 2, 4-(1-(2-(3-Chlorobenzoyl)-hydrazinylidene)-ethyl)-N-(cyclohexylcarbamoyl)-benzenesulfonamide] | – | > 100 µM | – | –
9 | 84.97 ± 0.46 µM | 84.97 ± 0.46 µM | CC(=NNC(=O)c1ccc(I)cc1)c1ccc(S(=O)(=O)NC(=O)NC2CCCCC2)cc1 [compound 4, N-(Cyclohexylcarbamoyl)-4-(1-(2-(4-iodobenzoyl)-hydrazinylidene)-ethyl)-benzenesulfonamide] | – | > 100 µM | – | –
10 | 46.14 ± 0.33 µM | 46.14 ± 0.33 µM | CC(=NNC(=O)c1ccc(C)cc1)c1ccc(S(=O)(=O)NC(=O)NC2CCCCC2)cc1 [compound 7, N-(Cyclohexylcarbamoyl)-4-(1-(2-(4-methylbenzoyl)-hydrazinylidene)-ethyl)-benzenesulfonamide] | – | 61 µM | – | –
11 | 57.1 ± 0.78 µM | 57.1 ± 0.78 µM | C/C(=N\NC(=O)c1cccc2ccccc12)c1ccc(S(=O)(=O)NC(=O)NC2CCCCC2)cc1 [compound 11, 4-(1-(2-(1-Naphthalene)-hydrazinylidene)-ethyl)-N-(cyclocarbamoyl)-benzenesulfonamide] | – | > 100 µM | – | –
12 | 66.38 ± 0.37 µM | 66.38 ± 0.37 µM | CC(=NNC(=O)c1ccccc1[N+](=O)[O-])c1ccc(S(=O)(=O)NC(=O)NC2CCCCC2)cc1 [compound 13, N-(Cyclohexylcarbamoyl)-4-(1-(2-(2-nitrobenzoyl)-hydrazinylidene)-ethyl)-benzenesulfonamide] | – | > 100 µM | – | –
13 | 52.25 ± 0.44 µM | 52.25 ± 0.44 µM | CC(=NNC(=O)c1ccc(Cl)cc1)c1ccc(S(=O)(=O)NC(=O)NC2CCCCC2)cc1 [compound 14, 4-(1-(2-(4-Chlorobenzoyl)-hydrazinylidene)-ethyl)-N-(cyclohexylcarbamoyl)-benzenesulfonamide] | – | – | – | –

Reference: article PMC12489694, “Design, Synthesis, Antidiabetic Activity and In Silico Studies of New Hydrazone Derivatives Derived from Acetohexamide” (ACS Omega, 2025)
